How the values were obtained:
[1] = system: Fusarium graminearum (strain 4528); conditions: cited from earlier work
[2] = system: Fusarium fungi; experiment: Field trial, winter wheat "Slade", Ulhówek (Poland) 2004: natural Fusarium ear infection, DON and ZEA content of grains (HPLC/MS), grain yield; assay type: in vivo; conditions: for ZEA content of the grains / Infection (ears infected by Fusarium fungi) / Grain yield: dose prohexadione-Ca 50, metconazole 90; for ZEA content of the grains: relative to untreated = 100% (0.073 mg per kg of harvested grains); for Infection (ears infected by Fusarium fungi): relative to untreated = 100% (4.5% of the ears infected), assessed Jul. 22, 2004; for Grain yield: relative to untreated = 100% (8.6 t/ha)
[3] = system: mildew; conditions: pre-treatment; cited from earlier work
[4] = system: Fusarium fungi; experiment: Field trial, winter wheat "Ritmo", Gronau 2004: natural Fusarium ear infection, DON and NIV content of grains (HPLC/MS), grain yield; assay type: in vivo
[5] = system: Fusarium graminearum; conditions: in vivo; cited from earlier work

Compound | Inhibition of mycelium growth [1] | Inhibition of the formation of 3-acetyldeoxynivalenol (3-ADON) [1] | ZEA content of the grains ([2]; treatment date 10.6.) [%] | Infection (ears infected by Fusarium fungi) ([2]; treatment date 10.6.) [%] | Grain yield ([2]; treatment date 10.6.) [%] | ZEA content of the grains ([2]; treatment date 19.6.) [%] | Infection (ears infected by Fusarium fungi) ([2]; treatment date 19.6.) [%] | Grain yield ([2]; treatment date 19.6.) [%] | other results
CC(C)C(O)(c1ccc(OC(F)(F)F)cc1)c1cncnc1 (centres unmarked) [flurprimidole] | only weakly | only weakly |  |  |  |  |  |  | 
prohexadione-calcium |  |  | 23 | 78 | 98 | 32 | 51 | 105 | DON content of the grains (statement in words) ([2]; winter wheat Slade, Ulhówek 2004, no DON figures printed): reduces the DON and ZEA contents considerably; Reduction of infection of wheat with mildew [3]: cannot be reduced; Content of the grains of NIV ([4]; in vivo): 75%; Content of the grains of DON ([4]; relative to untreated = 100% (22.4 mg of DON per kg of harvested grains), 50 g/ha, Jun. 7, 2004): 81%; Grain yield ([4]; relative to untreated = 100% (2.9 t/ha), 50 g/ha, Jun. 7, 2004): 109%; Infection (ears infected by Fusarium fungi) ([4]; relative to untreated = 100% (43.8% of the ears infected), 50 g/ha applied Jun. 7, 2004 at beginning of flowering, assessed Jun. 28, 2004): 91%
CC1(C)CCC(Cc2ccc(Cl)cc2)C1(O)Cn1cncn1 (centres unmarked) [metconazole, reference compound] |  |  | 53 | 18 | 108 | 33 | 18 | 110 | 
COc1ccc(C(O)(c2cncnc2)C2CC2)cc1 (centres unmarked) [ancymidole] | only weakly | only weakly |  |  |  |  |  |  | 
C[N+](C)(C)CCCl.[Cl-] [chlormequat chloride, 2-chloroethyltrimethylammonium chloride] |  |  |  |  |  |  |  |  | Effect on the susceptibility of wheat ears to infection with Fusarium graminearum [5]: no direct effect

Source: US20090131519A1 (priority 2005, published 2009)
